Results taken from ChEMBL document CHEMBL3758113, “Stelliosphaerols A and B, Sesquiterpene-Polyol Conjugates from an Ecuadorian Fungal Endophyte” (2015).
Converted amounts (≈) assume the structure as drawn.

System: Staphylococcus aureus
Experiment: Antibacterial activity against Staphylococcus aureus measured every 10 mins for 8 hrs by liquid culture growth inhibition assay
Format: functional

| MIC [µg/mL] | SMILES |
| --- | --- |
| 250 (≈ 647 µM) | CC1=CCC[C@@H](C)[C@]1(C)CC/C(C)=C/CO[C@@H]([C@H](O)[C@H](O)CO)[C@H](O)CO |
| 250 (≈ 621 µM) | CC1=CCC[C@@H](C)[C@]1(C)CC/C(=C/CO[C@@H]([C@H](O)[C@H](O)CO)[C@H](O)CO)CO |
